What was measured:
neutrophils in BALF = assay: Antigen-induced respiratory neutrophil infiltration in rat (BALF); format: in vivo, BN rats; details: Compound (I) 30 μg/rat, budesonide 10 μg/rat; for Number of neutrophils: mean±standard error
Protocol: (§1) Inhibitory Effect of Combined Administration of Compound (I) and Steroid Agent on Antigen-Induced Respiratory Eosinophil and Neutrophil Infiltration in Rat
(§2) The test was conducted according to a known method (Pulmonary Pharmacology, vol. 8, pp. 83-89 (1995)).
(§3) In the test, 6-week-old male BN rats (Charles River Japan) were used. The rats were placed in aluminum cages each containing 5 to 6 rats in a breeding room at room temperature (19° C. to 25° C.) and a humidity of 30% to 70% under illumination for 12 hours a day (7 a.m. to 7 p.m.) and bred by free intake of commercially available feeds and water.
(§4) A preparation (Compound (I)-lactose preparation) containing 5 mg of lactose (produced by DVM Corporation) to 1 mg of Compound (I) was prepared, and a suspension for administering Compound (I) was prepared by suspending the Compound (I)-lactose preparation in a 0.125 wt/vol % tyloxapol aqueous solution (ALEVAIRE: registered trade mark, produced by Azwell Inc.) so that the concentration of Compound (I) was 150 μg/mL. Also, a suspension for administering budesonide was prepared by suspending lactose and budesonide (manufactured by Sigma Corporation) in a 0.125 wt/vol % tyloxapol aqueous solution so that the concentrations of lactose and budesonide were 750 μg/mL and 50 μg/mL, respectively. Furthermore, a suspension for combined administration was prepared by suspending budesonide and the Compound (I)-lactose preparation prepared as described above in a 0.125 wt/vol % tyloxapol aqueous solution so that the concentrations of budesonide and Compound (I) were 50 μg/mL and 150 μg/mL, respectively. On the other hand, a solvent for administration was prepared by dissolving lactose in a 0.125 wt/vol % tyloxapol aqueous solution so that the concentration was 7.5 mg/mL.
(§5) The rats were subcutaneously administered with 1 mL of a suspension of 1 mg of ovalbumin (OVA, manufactured by Sigma Co.) and 200 mg of aluminum hydroxide (manufactured by Wako Pure Chemicals Industries, Ltd.) suspended in 1 mL of physiological saline (manufactured by Otsuka Pharmaceutical Co., Ltd.). Then, 0.5 mL of a suspension of killed Bordetella pertussis cells (2×10^10 cells/1 mL physiological saline, manufactured by Kaken Pharmaceutical Co., Ltd.) was intraperitoneally administered to perform active sensitization. Fourteen days after the active sensitization, the rats were placed in a plastic chamber (30×50×30 cm), and an 1 wt/vol % OVA physiological saline solution was nebulized for 10 minutes using an ultrasonic nebulizer (manufactured by Omron Corporation) to perform antigen challenge. […]
(§6) The total number of the leukocytes in BALF was measured with an automatic leukocyte counter (manufactured by Nihon Kohden Corporation). […]

eosinophils in BALF = assay: Antigen-induced respiratory eosinophil infiltration in rat (BALF); format: in vivo, BN rats; details: Compound (I) 30 μg/rat, budesonide 10 μg/rat; for Inhibition ratio (number of eosinophils) / Number of eosinophils: OVA-sensitized BN rats, intrabronchial 30 min before antigen challenge, BAL 24 h after; for Number of eosinophils: mean±standard error
Protocol: as §1, §2, §3, §4
as §5, with “challenge. Thirty minutes before the antigen-challenge, 100 μL of each of the suspensions for administration prepared as described above was intrabronchially administered to each of the right and left bronchi, i.e., administered in a total of 200 μL (medicine-administered group). Similarly, thirty minutes before the antigen challenge, a group which the solvent for administration was intrabronchially administered (solvent-administered group) was prepared. Also, a group which the solvent for administration was intrabronchially administered and a physiological saline was nebulized instead of the 1 wt/vol % OVA physiological saline solution (physiological saline-administered group) was prepared.” for “challenge.”
as §6

[1] = OVA-sensitized BN rats, intrabronchial 30 min before antigen challenge, BAL 24 h after

| Compound | Number of neutrophils (neutrophils in BALF; [1]) | Inhibition ratio (number of eosinophils) (eosinophils in BALF) [%] | Number of eosinophils (eosinophils in BALF) | Effect on the number of neutrophils in BALF (in words) (neutrophils in BALF; sole or combined) | Inhibition ratio (number of neutrophils) (neutrophils in BALF; OVA-sensitized BN rats, intrabronchial 30 min before antigen challenge, BAL 24 h after, N.E. = No effect) [%] | Inhibitory effect against increases in the number of eosinophils in BALF (in words) (eosinophils in BALF; sole or combined) |
| --- | --- | --- | --- | --- | --- | --- |
| CCCC1O[C@@H]2C[C@H]3[C@@H]4CCC5=CC(=O)C=C[C@]5(C)[C@H]4[C@@H](O)C[C@]3(C)[C@]2(C(=O)CO)O1 (stereo partly drawn) [Budesonide, budesonide, reference compound] | 2.50 ± 0.31 10^6/BALF | 54 | 0.26 ± 0.06 10^6/BALF |  |  |  |
| COc1ccc(C(=O)Cc2c(Cl)cncc2Cl)c2c1OC1(CCCC1)O2 [Compound (I), 7-[2-(3,5-dichloro-4-pyridyl)-1-oxoethyl]-4-methoxy-spiro[1,3-benzodioxol-2,1′-cyclopentane]] | 2.28 ± 0.27 10^6/BALF | 54 | 0.26 ± 0.08 10^6/BALF | not significantly affected | 3 | inhibitory effect against increases in the number of eosinophils was exhibited |

— US20060199789A1, “medical composition” (Kyowa Hakko Kogyo Co., Ltd., priority 2003, published 2006)
